Laboratory results published in publication PMC5298231, “The Malaria Parasite's Lactate Transporter PfFNT Is the Target of Antiplasmodial Compounds Identified in Whole Cell Phenotypic Screens” (PLoS Pathogens, 2017).
Where two headings read alike, the source gives them in different places.

Tested on: erythrocytes infected with 3D7 trophozoites
Format: cell-based, Plasmodium falciparum
Conditions: 6 μM

## COc1ccc2c(c1)OC(O)(C(F)(F)C(F)(F)F)CC2=O (stereo not shown) [MMV007839]
Av 3hr
  Serine log2 ratio (+MMV007839/-MMV007839): 0.166
  Succinate log2 ratio (+MMV007839/-MMV007839): -0.2462
  Succinate semialdehyde log2 ratio (+MMV007839/-MMV007839): -0.7119
  TNVK log2 ratio (+MMV007839/-MMV007839): -1.745
  Threonine log2 ratio (+MMV007839/-MMV007839): 0.01502
  Tryptophan log2 ratio (+MMV007839/-MMV007839): -0.2359
  Tyrosine log2 ratio (+MMV007839/-MMV007839): -0.01653
  UDP log2 ratio (+MMV007839/-MMV007839): -0.7159
  UDP-N-acetyl-D-glucosamine log2 ratio (+MMV007839/-MMV007839): 0.05247
  UDP-glucose log2 ratio (+MMV007839/-MMV007839): -0.07837
  UMP log2 ratio (+MMV007839/-MMV007839): -0.2624
  Uracil log2 ratio (+MMV007839/-MMV007839): -0.6081
  Uric Acid log2 ratio (+MMV007839/-MMV007839): -0.1135
  VD log2 ratio (+MMV007839/-MMV007839): 1.073
  Valine log2 ratio (+MMV007839/-MMV007839): -0.194
  Xanthine log2 ratio (+MMV007839/-MMV007839): -0.464
  dADP log2 ratio (+MMV007839/-MMV007839): -1.193
  dATP log2 ratio (+MMV007839/-MMV007839): -0.03116
  dCDP log2 ratio (+MMV007839/-MMV007839): 0.3315
  dGMP log2 ratio (+MMV007839/-MMV007839): 0.1661
  dTMP log2 ratio (+MMV007839/-MMV007839): 0.1316
  dTTP log2 ratio (+MMV007839/-MMV007839): -0.08156
  dUMP log2 ratio (+MMV007839/-MMV007839): 1.365
  myo-Inositol log2 ratio (+MMV007839/-MMV007839): -0.258
  sn-Glycerol 3-phosphate log2 ratio (+MMV007839/-MMV007839): 1.559
  sn-glycero-3-Phospho-1-inositol log2 ratio (+MMV007839/-MMV007839): 0.1698
Av 3hr, medRt 15.0954
  Hexose-phosphate log2 ratio (+MMV007839/-MMV007839): -0.3219
Av 3hr, medRt 16.8944
  6-Phospho-D-gluconate log2 ratio (+MMV007839/-MMV007839): -0.6275
Av 3hr, medRt 17.0788
  Hexose-phosphate log2 ratio (+MMV007839/-MMV007839): -1.577
Av 3hr, medRt 17.4636
  6-Phospho-D-gluconate log2 ratio (+MMV007839/-MMV007839): -0.2282
Av 6hr
  1-3 (2-3)-diphopshateglycerate log2 ratio (+MMV007839/-MMV007839): 0.3636
  2-Hydroxyglutarate log2 ratio (+MMV007839/-MMV007839): -0.3824
  2-Ketoglutarate log2 ratio (+MMV007839/-MMV007839): -0.4713
  3-Phosho-D-glycerate log2 ratio (+MMV007839/-MMV007839): 0.02516
  3-Phospho-serine log2 ratio (+MMV007839/-MMV007839): -0.6364
  4-Aminobutanoate log2 ratio (+MMV007839/-MMV007839): 1.092
  5-Phosphoribosyl-1-pyrophosphate log2 ratio (+MMV007839/-MMV007839): 0.556
  ADP log2 ratio (+MMV007839/-MMV007839): -0.3027
  AMP log2 ratio (+MMV007839/-MMV007839): -0.04039
  ATLS log2 ratio (+MMV007839/-MMV007839): -0.1601
  ATP log2 ratio (+MMV007839/-MMV007839): -0.3608
  Acetyl-CoA log2 ratio (+MMV007839/-MMV007839): -0.9886
  Acetyl-L-alanine log2 ratio (+MMV007839/-MMV007839): -0.3969
  Adenine log2 ratio (+MMV007839/-MMV007839): -0.7079
  Arginine log2 ratio (+MMV007839/-MMV007839): 0.2024
  Asparagine log2 ratio (+MMV007839/-MMV007839): 0.205
  Aspartic Acid log2 ratio (+MMV007839/-MMV007839): -0.08675
  CDP log2 ratio (+MMV007839/-MMV007839): -0.2824
  CDP-ethanolamine log2 ratio (+MMV007839/-MMV007839): -0.09908
  CMP log2 ratio (+MMV007839/-MMV007839): 0.2839
  CTP log2 ratio (+MMV007839/-MMV007839): -0.5655
  Cholesteryl sulfate log2 ratio (+MMV007839/-MMV007839): -0.1903
  Citrate log2 ratio (+MMV007839/-MMV007839): -0.1627
  CoA log2 ratio (+MMV007839/-MMV007839): -0.6499
  Cyclic AMP log2 ratio (+MMV007839/-MMV007839): -1.349
  Cytidine log2 ratio (+MMV007839/-MMV007839): 0.1751
  D-Glucono-1-4-lactone log2 ratio (+MMV007839/-MMV007839): 2.219
  DALT log2 ratio (+MMV007839/-MMV007839): 0.7209
  DEVG log2 ratio (+MMV007839/-MMV007839): -0.06216
  DGLA log2 ratio (+MMV007839/-MMV007839): 0.8365
  DLS log2 ratio (+MMV007839/-MMV007839): -0.1236
  Deoxycytidine log2 ratio (+MMV007839/-MMV007839): 1.626
  Dihydroorotate log2 ratio (+MMV007839/-MMV007839): -1.004
  ESFG log2 ratio (+MMV007839/-MMV007839): 0.5044
  EVGG log2 ratio (+MMV007839/-MMV007839): -0.2203
  Erythrose 4-phosphate log2 ratio (+MMV007839/-MMV007839): -0.7036
  FAD log2 ratio (+MMV007839/-MMV007839): -0.616
  FMN log2 ratio (+MMV007839/-MMV007839): -0.6137
  Farnesyl diphosphate log2 ratio (+MMV007839/-MMV007839): -0.2783
  Folate log2 ratio (+MMV007839/-MMV007839): -0.4942
  Fructose-1-6-bisphosphate log2 ratio (+MMV007839/-MMV007839): 0.3974
  Fructose-6-Phosphate log2 ratio (+MMV007839/-MMV007839): -0.1081
  GDP log2 ratio (+MMV007839/-MMV007839): -0.8963
  GDP-mannose log2 ratio (+MMV007839/-MMV007839): -1.076
  GMP log2 ratio (+MMV007839/-MMV007839): -0.8795
  GTP log2 ratio (+MMV007839/-MMV007839): -0.6956
  Geranylgeranyl pyrophosphate log2 ratio (+MMV007839/-MMV007839): -0.7121
  Gluconate log2 ratio (+MMV007839/-MMV007839): -0.0152
  Glucose-6-Phosphate log2 ratio (+MMV007839/-MMV007839): -0.5083
  Glutamate log2 ratio (+MMV007839/-MMV007839): -0.02563
  Glutamine log2 ratio (+MMV007839/-MMV007839): 1.089
  Glutathione disulfide log2 ratio (+MMV007839/-MMV007839): -0.1925
  Glutathione log2 ratio (+MMV007839/-MMV007839): -0.4326
  Glyceraldehyde 3-phosphate log2 ratio (+MMV007839/-MMV007839): -1.148
  Glycerone phosphate log2 ratio (+MMV007839/-MMV007839): -0.3794
  HLD log2 ratio (+MMV007839/-MMV007839): 0.5581
  HVDD log2 ratio (+MMV007839/-MMV007839): 0.02571
  Histidine log2 ratio (+MMV007839/-MMV007839): 1.263
  Homoserine log2 ratio (+MMV007839/-MMV007839): 0.6347
  Hydroxy-L-proline log2 ratio (+MMV007839/-MMV007839): -0.1227
  Hypoxanthine log2 ratio (+MMV007839/-MMV007839): 0.2056
  IDP log2 ratio (+MMV007839/-MMV007839): 0.2522
  IMP log2 ratio (+MMV007839/-MMV007839): -0.2109
  Inosine log2 ratio (+MMV007839/-MMV007839): 0.5174
  Isoleucine log2 ratio (+MMV007839/-MMV007839): 0.1143
  LD log2 ratio (+MMV007839/-MMV007839): 0.1248
  Lactate log2 ratio (+MMV007839/-MMV007839): 2.505
  Leucine log2 ratio (+MMV007839/-MMV007839): 0.06585
  Lysine log2 ratio (+MMV007839/-MMV007839): 1.1316
  Malate log2 ratio (+MMV007839/-MMV007839): -0.236
  Mannitol log2 ratio (+MMV007839/-MMV007839): -0.1109
  Methionine log2 ratio (+MMV007839/-MMV007839): -0.2224
  Myristic acid log2 ratio (+MMV007839/-MMV007839): -0.7184
  N-Acetyl-glutamate log2 ratio (+MMV007839/-MMV007839): -1.091
  N-Carbamoyl-L-aspartate log2 ratio (+MMV007839/-MMV007839): -1.386
  NAD+ log2 ratio (+MMV007839/-MMV007839): 0.1336
